Experiments:
drosophila cell lines = conditions: cited from earlier work
GGEc = molecular target: T1, GGEc (Drosophila melanogaster, UniProt P34021); test: Induction of GRE reporter G4M-77CO by chimeric receptor GGEc in 293 cells; type: cell-based; conditions: GRE reporter G4M-77CO
T1 construct: expressed in transfected cells; host or cells: 293 cells
T1 sequence (P34021 329-878): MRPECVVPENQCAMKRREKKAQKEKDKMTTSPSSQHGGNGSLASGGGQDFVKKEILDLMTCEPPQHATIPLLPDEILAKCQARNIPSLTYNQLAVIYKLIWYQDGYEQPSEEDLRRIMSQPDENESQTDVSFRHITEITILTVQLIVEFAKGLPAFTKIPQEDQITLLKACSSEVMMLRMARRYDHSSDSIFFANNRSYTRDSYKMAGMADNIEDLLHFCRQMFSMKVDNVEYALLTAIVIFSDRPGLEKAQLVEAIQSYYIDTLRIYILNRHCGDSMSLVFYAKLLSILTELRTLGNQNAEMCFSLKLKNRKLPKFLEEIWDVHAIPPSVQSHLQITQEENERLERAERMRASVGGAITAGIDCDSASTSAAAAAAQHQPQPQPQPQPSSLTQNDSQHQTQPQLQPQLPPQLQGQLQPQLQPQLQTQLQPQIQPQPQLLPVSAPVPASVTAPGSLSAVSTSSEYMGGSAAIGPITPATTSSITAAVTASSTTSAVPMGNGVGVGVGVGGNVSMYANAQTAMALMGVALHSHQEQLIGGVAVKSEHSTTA
Text: I choose to determine if the ligand-binding domain of DHR23a could be used to regulate the DNA-binding and transactivation domains of the mammalian glucocorticoid receptor for the following reasons. First, in contrast to DHR23α, high affinity DNA-binding sites for the GR have been identified (M. Beato, Cell 56, 335 [1989]) and reporter genes containing these sites are very strongly regulated. Thus, the sensitivity of our assays could be increased. Secondly, these chimeric receptors could be utilized to selectively regulate endogenous genes in mammalian cells in response to ecdysteroids. I constructed a chimeric gene, GGEc, in which the sequences encoding the ligand-binding domain of the GR were replaced with that of DHR23α (Fig. 4A). […] However, expression of the GRE-containing reporter gene was induced more than 700 fold by GGEc in muristerone-treated cells.

DHR23α = molecular target: T2, DHR23α (Drosophila melanogaster, UniProt P34021); test: DHR23α transactivation of EcRE (Ec4M-77CO) CAT reporter in transfected human 293 cells; type: cell-based; conditions: pRSV.DHR23α + pEc4M-77CO (EcRE) CAT reporter, ligand 1 µM, 48 hrs
T2 construct: To isolate the full-length DHR23α clones; expressed in transfected cells; host or cells: human 293 cells
T2 sequence (P34021 1-878): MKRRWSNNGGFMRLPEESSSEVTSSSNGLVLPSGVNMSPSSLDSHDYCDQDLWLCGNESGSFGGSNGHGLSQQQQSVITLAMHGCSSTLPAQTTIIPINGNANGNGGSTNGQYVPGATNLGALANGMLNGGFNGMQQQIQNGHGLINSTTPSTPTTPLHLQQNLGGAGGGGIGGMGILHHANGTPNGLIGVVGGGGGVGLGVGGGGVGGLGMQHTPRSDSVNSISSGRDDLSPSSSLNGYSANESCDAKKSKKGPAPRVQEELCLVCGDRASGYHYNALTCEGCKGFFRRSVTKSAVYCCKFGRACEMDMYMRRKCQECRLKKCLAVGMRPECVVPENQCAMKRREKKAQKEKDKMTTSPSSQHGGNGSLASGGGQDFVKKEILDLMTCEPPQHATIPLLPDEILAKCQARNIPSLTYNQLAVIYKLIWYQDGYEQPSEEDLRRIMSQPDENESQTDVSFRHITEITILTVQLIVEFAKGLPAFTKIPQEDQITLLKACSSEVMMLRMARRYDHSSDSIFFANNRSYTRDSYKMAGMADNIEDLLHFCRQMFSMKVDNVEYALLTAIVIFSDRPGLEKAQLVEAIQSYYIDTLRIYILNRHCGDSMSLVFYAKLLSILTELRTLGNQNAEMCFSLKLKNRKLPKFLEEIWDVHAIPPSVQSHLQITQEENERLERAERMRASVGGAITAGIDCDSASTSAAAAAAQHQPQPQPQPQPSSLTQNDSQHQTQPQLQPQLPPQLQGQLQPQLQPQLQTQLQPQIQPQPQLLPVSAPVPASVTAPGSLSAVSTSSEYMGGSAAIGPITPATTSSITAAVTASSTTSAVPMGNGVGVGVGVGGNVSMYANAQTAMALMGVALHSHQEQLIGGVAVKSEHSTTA
T2 sequence (P19793 1-462 partner): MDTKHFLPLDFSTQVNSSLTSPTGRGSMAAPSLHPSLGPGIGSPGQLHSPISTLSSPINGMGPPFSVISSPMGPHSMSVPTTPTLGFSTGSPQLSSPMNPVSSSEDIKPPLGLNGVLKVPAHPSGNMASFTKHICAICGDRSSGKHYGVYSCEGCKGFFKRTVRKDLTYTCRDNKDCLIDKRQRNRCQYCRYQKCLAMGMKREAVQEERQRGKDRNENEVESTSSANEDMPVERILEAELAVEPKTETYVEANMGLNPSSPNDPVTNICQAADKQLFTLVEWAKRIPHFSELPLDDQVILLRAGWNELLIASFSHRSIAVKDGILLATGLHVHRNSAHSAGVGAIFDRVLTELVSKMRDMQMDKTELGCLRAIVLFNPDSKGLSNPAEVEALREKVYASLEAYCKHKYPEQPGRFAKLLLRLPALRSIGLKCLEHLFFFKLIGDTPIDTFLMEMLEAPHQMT
Method: Figure. 2. […] Human 293 cells were cotransfected with 2.5 µg of the expression plasmid pRSV.DHR23α or the parental expression plasmid pRSV (Control) and 0.5 µgs of the reporter plasmid pEc4M-77CO (EcRE) or pG4M-77CO (GRE). As a control for transfection efficiency, 0.5 µgs of the control plasmid pRSV.hGH was included in the transfection mixture. After transfection, cells were treated without (-) or with alpha-ecdysone (alpha), 20-OH ecdysone (20-OH), polypodine B (ppB), ponasterone A (ponA) or muristeroine A (murA). CAT extracts were harvested 48 hrs after transfection and assayed. The values were normalized to the expression of hGH and the average values of three independent experiments are shown. The "fold induction" represents the level of expression of the reporter gene in cells incubated with hormone divided by the expression of that reporter gene in extracts from cells incubated in the absence of added ligand.
I determined whether DHR23α could function in mammalian cells treated with ecdysteroids to enhance the transcription of a reporter gene containing EcREs linked to the murine mammary tumor virus (MTV) promoter and chloramphenicol acetyltransferase (CAT) gene. Human 293 cells were cotransfected with an RSV-based expression vector that encodes DHR23a and the reporter gene Ec4M-77CO that contains 4 copies of an ecdysone response element (EcRE) from the Drosophila HSP27 promoter (G. Riddihough and H. R. B. Pelham, EMBO J. 6, 3729 [1987]) linked to an MTV promoter-CAT construct.
Human 293 cells were cotransfected with 2.5 µg of the expression plasmid pRSV.DHR23α or the parental expression plasmid pRSV (Control) and 0.5 µgs of the reporter plasmid pEc4M-77CO (EcRE) or pG4M-77CO (GRE). As a control for transfection efficiency, 0.5 µgs of the control plasmid pRSV.hGH was included in the transfection mixture. After transfection, cells were treated without (-) or with alpha-ecdysone (alpha), 20-OH ecdysone (20-OH), polypodine B (ppB), ponasterone A (ponA) or muristeroine A (murA). All candidate ligands were added at a concentration of 1 µM. CAT extracts were harvested 48 hrs after transfection, and assays were performed as described (D. R. Cavener, Nucl. Acids Res. 15, 1353-1361 [1987]). The values were normalized to the expression of hGH and the average values of three independent experiments are shown in Figure 2. The "fold induction" represents the level of expression of the reporter gene in cells incubated with hormone divided by the expression of that reporter gene in extracts from cells incubated in the absence of added ligand.
Cells were transfected with the DHR23α expression vector and Ec4M-77CO reporter gene and treated without (-) or with the following hormones (1 µM): muristerone A (mur A) dexamethasone (Dex) 17β-estradiol (E2), aldosterone (Aldo), corticosterone (Cort) hydroxycorticosterone (OH-Cort) thyroid hormone (T3), promegestone (Promeg) or 1,25-dihydroxy vitamin D3 (VD3). Reporter gene activity was determined as described above for Figure 2.

GGG = molecular target: T3, GGG (Rattus norvegicus, UniProt P06536); test: Induction of GRE reporter G4M-77CO by GGG (glucocorticoid receptor) in 293 cells; conditions: normalized to hGH, SD in parentheses, 2880 min
T3 sequence (P06536 1-795): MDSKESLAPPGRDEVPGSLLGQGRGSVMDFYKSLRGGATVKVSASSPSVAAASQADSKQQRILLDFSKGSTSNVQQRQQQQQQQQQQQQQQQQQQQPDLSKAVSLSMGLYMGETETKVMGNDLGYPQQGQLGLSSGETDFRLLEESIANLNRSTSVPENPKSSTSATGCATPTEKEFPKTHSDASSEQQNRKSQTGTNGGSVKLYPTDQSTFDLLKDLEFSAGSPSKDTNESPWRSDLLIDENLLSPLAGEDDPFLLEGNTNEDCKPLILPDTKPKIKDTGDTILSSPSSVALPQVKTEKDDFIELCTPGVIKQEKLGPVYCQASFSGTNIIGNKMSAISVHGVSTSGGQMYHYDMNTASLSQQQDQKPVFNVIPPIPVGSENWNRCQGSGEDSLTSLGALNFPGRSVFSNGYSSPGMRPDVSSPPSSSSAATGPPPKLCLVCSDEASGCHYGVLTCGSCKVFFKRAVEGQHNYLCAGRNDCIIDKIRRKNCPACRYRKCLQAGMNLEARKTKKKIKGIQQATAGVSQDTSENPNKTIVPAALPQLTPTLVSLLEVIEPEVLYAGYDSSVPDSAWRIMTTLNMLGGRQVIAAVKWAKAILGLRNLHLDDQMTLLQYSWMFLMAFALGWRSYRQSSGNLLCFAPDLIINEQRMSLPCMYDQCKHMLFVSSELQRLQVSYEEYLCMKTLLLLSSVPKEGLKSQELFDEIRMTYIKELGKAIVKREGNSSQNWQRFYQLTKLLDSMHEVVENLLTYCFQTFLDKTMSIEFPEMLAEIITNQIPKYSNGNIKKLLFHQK

| Structure (SMILES) | agonist activity in drosophila cell lines (drosophila cell lines) | relative efficacies of ecdysteroids as agonists for the chimeric receptor (GGEc) | agonist for DHR23α in mammalian cells (expression of the reporter gene) (DHR23α) | fold induction (GGG) [fold] | agonist for DHR23α in mammalian cells (expression of the reporter gene) (DHR23α; 1 µM) |
| --- | --- | --- | --- | --- | --- |
| CC(C)(O)CC[C@@H](O)[C@](C)(O)[C@H]1CC[C@@]2(O)C3=CC(=O)[C@]4(O)C[C@@H](O)[C@@H](O)C[C@]4(C)[C@H]3CC[C@]12C [polypodine B] | agonists | neither α-ecdysone, 20-OH ecdysone or polypodine B acted as agonists | Neither α-ecdysone, 20-OH ecdysone, nor polypodine B acted as agonists |  |  |
| CC(C)CC[C@@H](O)[C@](C)(O)[C@H]1CC[C@@]2(O)C3=CC(=O)[C@@H]4C[C@@H](O)[C@@H](O)C[C@]4(C)[C@H]3CC[C@]12C [ponasterone A] |  | weak | weak agonist |  |  |
| C[C@H]([C@H](O)CCC(C)(C)O)[C@H]1CC[C@@]2(O)C3=CC(=O)[C@@H]4C[C@@H](O)[C@@H](O)C[C@]4(C)[C@H]3CC[C@]12C [α-ecdysone] |  | neither α-ecdysone, 20-OH ecdysone or polypodine B acted as agonists | Neither α-ecdysone, 20-OH ecdysone, nor polypodine B acted as agonists |  |  |
| C[C@@H]1C[C@H]2[C@@H]3CCC4=CC(=O)C=C[C@]4(C)[C@@]3(F)[C@@H](O)C[C@]2(C)[C@@]1(O)C(=O)CO [dexamethasone] |  |  |  | 347 |  |
| CC(C)(O)CC[C@@H](O)[C@](C)(O)[C@H]1CC[C@@]2(O)C3=CC(=O)[C@@H]4C[C@@H](O)[C@@H](O)C[C@]4(C)[C@H]3CC[C@]12C [20-OH ecdysone] | agonists | neither α-ecdysone, 20-OH ecdysone or polypodine B acted as agonists | Neither α-ecdysone, 20-OH ecdysone, nor polypodine B acted as agonists |  | inactive |
